For five molecules, IC50 results are on record in PubChem BioAssay AID540260 (Sanford-Burnham Center for Chemical Genomics, 2011).

Each structure is given as a SMILES string. Activity calls are given as the source filed them. No rule for the calls is given here. A value given as a limit tells only on which side of the number the result lay.

The target of this experiment is Alkaline phosphatase, placental type (Homo sapiens) (UniProt P05187). The experiment can be described thus: PLAP enzyme inhibition by analogs, SAR follow-up, selectivity assay for human IAP inhibitor project, biochemical, human PLAP isozyme, set 2 (AID 540260). The note with it: purified placental alkaline phosphatase enzyme activity.
Usually IC50 stands for the point on the concentration scale where inhibition reaches its midpoint. Turning to `N#Cc1ccc(CNC(=O)CCNS(=O)(=O)c2ccc3[nH]c(=O)oc3c2)cc1`, the IC50 is > 100 µM (inactive).

As for `O=C(CNS(=O)(=O)c1ccc2[nH]c(=O)oc2c1)Nc1ccc2c(c1)OCO2`, the IC50 is > 100 µM (inactive).

Consider `Cc1ccc(C)c(NC(=O)CCNS(=O)(=O)c2ccc3[nH]c(=O)oc3c2)c1`, for which the IC50 was > 100 µM (inactive).

For `O=C(CNS(=O)(=O)c1ccc2[nH]c(=O)oc2c1)NCc1ccc2c(c1)OCO2`, the IC50 was > 100 µM (inactive).

On to `COc1ccc(NC(=O)CNS(=O)(=O)c2ccc3[nH]c(=O)oc3c2)cc1OC`, for which the IC50 is > 100 µM (inactive).
